Results from BindingDB's records for PubMed 1464308 (Cnrs, 1992).

Target: 5-hydroxytryptamine receptor 5A (Mus musculus, UniProt P30966)
Sequence (P30966 whole entry): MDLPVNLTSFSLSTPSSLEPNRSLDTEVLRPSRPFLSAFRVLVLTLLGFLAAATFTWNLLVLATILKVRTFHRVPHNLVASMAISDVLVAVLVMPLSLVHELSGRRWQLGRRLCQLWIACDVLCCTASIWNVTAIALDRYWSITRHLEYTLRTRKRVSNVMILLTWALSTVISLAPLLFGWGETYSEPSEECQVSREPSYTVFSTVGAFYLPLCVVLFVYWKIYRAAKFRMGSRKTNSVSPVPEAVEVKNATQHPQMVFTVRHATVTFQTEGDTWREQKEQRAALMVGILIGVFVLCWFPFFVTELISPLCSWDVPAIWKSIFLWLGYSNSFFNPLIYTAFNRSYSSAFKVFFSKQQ

Row | Structure (SMILES) | Ki [nM]
1 | COc1ccc2[nH]cc(C3=CCNCC3)c2c1 [5-Methoxy-3-(1,2,3,6-tetrahydro-pyridin-4-yl)-1H-indole(RU-24969)] | 316
2 | CSc1ccc2c(c1)C(N1CCN(C)CC1)Cc1ccccc1S2 (centres undefined) [methanesulfonic acid;1-methyl-4-(3-methylsulfanyl-5,6-dihydrobenzo[b][1]benzothiepin-5-yl)piperazine] | 100
3 | NCCc1ccc(O)c(O)c1 | > 10000
4 | O=C(c1ccc(F)cc1)C1CCN(CCn2c(=O)[nH]c3ccccc3c2=O)CC1 [3-(2-{4-[(4-fluorophenyl)carbonyl]piperidin-1-yl}ethyl)-1,2,3,4-tetrahydroquinazoline-2,4-dione] | > 10000
5 | CN(C)CCc1c[nH]c2ccc(O)cc12 [3-[2-(dimethylamino)ethyl]indol-5-ol] | 1000
6 | CCCN(CCC)C1CCc2cccc(O)c2C1 (centres undefined) | 1260
7 | CCN(CC)C(=O)[C@@H]1C=C2c3cccc4[nH]c(Br)c(c34)C[C@H]2N(C)C1 [LSD,2-Bromo] | 1.99
8 | CN1C[C@H](C(=O)N[C@]2(C)O[C@@]3(O)[C@@H]4CCCN4C(=O)[C@H](Cc4ccccc4)N3C2=O)C=C2c3cccc4[nH]cc(c34)C[C@H]21 [12'-hydroxy-2'-methyl-5'alpha-(phenylmethyl)ergotaman-3',6',18-trione] | 3.98
9 | CC(C)NCC(O)COc1cccc2[nH]ccc12 (centres undefined) [LB-46] | > 10000
10 | NCC(O)c1ccc(O)c(O)c1 (stereo not drawn) [Noradrenaline,(+)] | > 10000
11 | O=C(CCCN1CCC2(CC1)C(=O)NCN2c1ccccc1)c1ccc(F)cc1 [8-[4-(4-fluorophenyl)-4-oxidanylidene-butyl]-1-phenyl-1,3,8-triazaspiro[4.5]decan-4-one] | 2510
12 | CNS(=O)(=O)Cc1ccc2[nH]cc(CCN(C)C)c2c1 [Sumax] | > 10000
13 | FC(F)(F)c1cccc(N2CCNCC2)c1 [TFMPP] | 2510
14 | CC[C@@H](CO)NC(=O)[C@@H]1C=C2c3cccc4c3c(cn4C)C[C@H]2N(C)C1 | 63.1
